# System: D341 Med (cerebellar medulloblastoma cell)
# Assay: Cell viability assay (Promega CellTiter-Glo), inhibitory effect on D341 Med
# Assay type: cell-based
# Details: Homo sapiens, 72 h, 3 days of culture, read-out: inhibitory effect on brain cell line D341 Med (IC50)
# Description: (§1) The inhibitory effect of the compounds prepared in the Examples of the present invention on various brain tumor cell lines was detected using cell viability assay reagent.
# (§2) Cell viability was detected using the Promega CellTiter-Glo kit, cell viability was determined by directly measuring intracellular ATP content. In the experiment, the IC50 value of the compounds prepared in the Examples of the present invention on various brain tumor cell lines was detected.
# (§3) Each tumor cell was cultured in relevant medium. After cell passage, the gradient diluted compounds prepared in the Examples of the present invention was added. After 3 days of culture, the relevant IC50 (50% inhibiting concentration) was measured. The name, source and culture conditions of each tumor cell line were as follows:
# Cell line D341 Med (ATCC, No. HTB-187) was cultured in 20% fetal bovine serum-containing EMEM medium (+P/S).
row,Structure (SMILES),IC50 [nM]
1,COc1ccc2cc3[n+](cc2c1OC/C=C(\C)CCC=C(C)C)CCc1cc2c(cc1-3)OCO2 [compound AB31737],400
2,CCCCCCCCNc1c(OC)ccc2cc3[n+](cc12)CCc1cc2c(cc1-3)OCO2 [compound AB31739],860

# System: NCI-H82 (human small cell lung cancer cell)
# Assay: Cell viability assay (Promega CellTiter-Glo), inhibitory effect on NCI-H82
# Assay type: cell-based
# Details: 72 h, 3 days of culture
# Description: (§4) The inhibitory effect of the compounds prepared in the Examples of the present invention on various tumor cell lines was detected using cell viability assay reagent.
# (§5) Cell viability was detected using the Promega CellTiter-Glo kit, cell viability was determined by directly measuring intracellular ATP content. In the experiment, the ICso value of the compounds prepared in the Examples of the present invention on various tumor cell lines was detected.
# as §3
# Cell line NCI-H82 (ATCC, No. HTB-175) was cultured in 10% fetal bovine serum-containing RPMI1640 medium (+P/S).
row,Structure (SMILES),IC50 [nM]
1,COc1ccc2cc3[n+](cc2c1OC/C=C(\C)CCC=C(C)C)CCc1cc2c(cc1-3)OCO2 [compound AB31737],240
2,CCCCCCCCNc1c(OC)ccc2cc3[n+](cc12)CCc1cc2c(cc1-3)OCO2 [compound AB31739],450

# System: SW48 (human colon adenocarcinoma cell)
# Assay: Cell viability assay (Promega CellTiter-Glo), inhibitory effect on SW48
# Assay type: cell-based
# Details: 72 h, 3 days of culture
# Description: as §4, §5, §3
# Cell line SW48 (ATCC, No. CCL-231) was cultured in 10% fetal bovine serum-containing Leibovitz's L-15 medium (+P/S).
row,Structure (SMILES),IC50 [nM]
1,COc1ccc2cc3[n+](cc2c1OC/C=C(\C)CCC=C(C)C)CCc1cc2c(cc1-3)OCO2 [compound AB31737],200
2,CCCCCCCCNc1c(OC)ccc2cc3[n+](cc12)CCc1cc2c(cc1-3)OCO2 [compound AB31739],430

# System: MDA-MB-453 (breast cancer cell)
# Assay: Cell viability assay (Promega CellTiter-Glo), inhibitory effect on MDA-MB-453
# Assay type: cell-based
# Details: Homo sapiens, 72 h, 3 days of culture
# Description: as §4, §5, §3
# Cell line MDA-MB-453 (ATCC, No. HTB-131) was cultured in 10% fetal bovine serum-containing Leibovitz's L-15 medium (+P/S).
row,Structure (SMILES),IC50 [nM]
1,COc1ccc2cc3[n+](cc2c1OC/C=C(\C)CCC=C(C)C)CCc1cc2c(cc1-3)OCO2 [compound AB31737],90
2,CCCCCCCCNc1c(OC)ccc2cc3[n+](cc12)CCc1cc2c(cc1-3)OCO2 [compound AB31739],370

# System: NB-1 (brain neuroblastoma cell)
# Assay: Cell viability assay (Promega CellTiter-Glo), inhibitory effect on NB-1
# Assay type: cell-based
# Details: Homo sapiens, 72 h, 3 days of culture, read-out: inhibitory effect on brain cell line NB-1 (IC50)
# Description: as §1, §2, §3
# Cell line NB-1 (ATCC, No. HTB-131) was cultured in 10% fetal bovine serum-containing Leibovitz's L-15 medium (+P/S).
row,Structure (SMILES),IC50 [nM]
1,COc1ccc2cc3[n+](cc2c1OC/C=C(\C)CCC=C(C)C)CCc1cc2c(cc1-3)OCO2 [compound AB31737],20
2,CCCCCCCCNc1c(OC)ccc2cc3[n+](cc12)CCc1cc2c(cc1-3)OCO2 [compound AB31739],90

# System: Con-NCI-H82 cell (NCI-H82 transfected with empty virus vector)
# Assay: Cell viability assay (Promega CellTiter-Glo), inhibitory effect on Con-NCI-H82 cell
# Assay type: cell-based
# Details: Homo sapiens; NCI-H82 transfected with empty virus vector (control); CellTiter-Glo; read-out: inhibitory effect on Con-NCI-H82 (IC50)
# Description: (§6) The role of expression level of NNMT gene and DNMT1 in the sensitivity of NCI-H82 cell to the compounds prepared in the Examples of the present invention was determined
# (§7) The expression of NNMT protein in NCI-H82 cell was overexpressed by inserting the NNMT gene into NCI-H82 cell using a viral vector, and the NNMT protein-overexpressing NCI-H82 cell (ov-NNMT NCI-H82 cell) was obtained. The expression of DNMT1 in NCI-H82 cell was knocked down transfecting (the by shRNA nucleotide sequence of shRNA was […] TTTTTG (SEQ ID No: 2)) using a viral vector, and the NCI-H82 cell with low expression of DNMT1 protein (sh-DNMT1 NCI-H82 cell) was obtained. The control NCI-H82 cell (Con-NCI-H82 cell) was obtained by transfecting NCI-H82 cell with empty virus vector without carrying NNMT gene and shRNA. The expressing content of NNMT protein and DNMT1 protein in the Con-NCI-H82 cell, the expressing content of NNMT protein in the ov-NNMT NCI-H82 cell, and the expressing content of DNMT1 protein in the sh-DNMT1 NCI-H82 cell were detected using Western Blot assay (as shown in FIG. 15 and FIG. 16), it could be seen from FIG. 15 and FIG. 16 that the NNMT protein was overexpressed in the ov-NNMT NCI-H82 cell and the expression of DNMT1 protein was knocked down (i.e, low expression) in the sh-DNMT1 NCI-H82 cell compared with the expression level of NNMT protein and DNMT protein in the Con-NCI-H82 cell.
row,Structure (SMILES),IC50 [nM]
1,COc1ccc2cc3[n+](cc2c1OC/C=C(\C)CCC=C(C)C)CCc1cc2c(cc1-3)OCO2 [compound AB31737],240
2,CCCCCCCCNc1c(OC)ccc2cc3[n+](cc12)CCc1cc2c(cc1-3)OCO2 [compound AB31739],450

# System: sh-DNMT1 NCI-H82 cell (DNMT1 knocked down NCI-H82)
# Assay: Cell viability assay (Promega CellTiter-Glo), inhibitory effect on sh-DNMT1 NCI-H82 cell
# Assay type: cell-based
# Details: Homo sapiens, NCI-H82 with DNMT1 knocked down by shRNA
# Description: as §6, §7
row,Structure (SMILES),IC50 [nM]
1,COc1ccc2cc3[n+](cc2c1OC/C=C(\C)CCC=C(C)C)CCc1cc2c(cc1-3)OCO2 [compound AB31737],940
2,CCCCCCCCNc1c(OC)ccc2cc3[n+](cc12)CCc1cc2c(cc1-3)OCO2 [compound AB31739],1550

# System: SF126 (human glioblastoma multiforme cell)
# Assay: Cell viability assay (Promega CellTiter-Glo), inhibitory effect on SF126
# Assay type: cell-based
# Details: 72 h, SF-126, 3 days of culture, Table 3, read-out: inhibitory effect on SF-126 (IC50)
# Description: as §4, §5, §3
# Cell line SF126 (JCRB, No. IFO50286) was cultured in 10% fetal bovine serum-containing EMEM medium (+P/S).
# as §1, §2
row,Structure (SMILES),IC50 [nM]
1,COc1ccc2cc3[n+](cc2c1OC/C=C(\C)CCC=C(C)C)CCc1cc2c(cc1-3)OCO2 [compound AB31737],4140
2,CCCCCCCCNc1c(OC)ccc2cc3[n+](cc12)CCc1cc2c(cc1-3)OCO2 [compound AB31739],3570

# Same assay, conditions: SF-126, 72 h, SF126, 3 days of culture, Table 4, read-out: inhibitory effect on brain cell line SF126 (IC50)
row,Structure (SMILES),IC50 [nM]
1,COc1ccc2cc3[n+](cc2c1OC/C=C(\C)CCC=C(C)C)CCc1cc2c(cc1-3)OCO2 [compound AB31737],4140
2,CCCCCCCCNc1c(OC)ccc2cc3[n+](cc12)CCc1cc2c(cc1-3)OCO2 [compound AB31739],3570

# System: CFPAC-1 (human pancreatic cancer cell)
# Assay: Cell viability assay (Promega CellTiter-Glo), inhibitory effect on CFPAC-1
# Assay type: cell-based
# Details: 72 h, 3 days of culture
# Description: as §4, §5, §3
# Cell line CFPAC-1 (ATCC, No. CRL-1918) was cultured in 10% fetal bovine serum-containing IMDM medium (+P/S).
row,Structure (SMILES),IC50 [nM]
1,COc1ccc2cc3[n+](cc2c1OC/C=C(\C)CCC=C(C)C)CCc1cc2c(cc1-3)OCO2 [compound AB31737],4600
2,CCCCCCCCNc1c(OC)ccc2cc3[n+](cc12)CCc1cc2c(cc1-3)OCO2 [compound AB31739],6070

# System: GB-1 (human brain glioblastoma cell)
# Assay: Cell viability assay (Promega CellTiter-Glo), inhibitory effect on GB-1
# Assay type: cell-based
# Details: 72 h, 3 days of culture, Table 3, read-out: inhibitory effect on GB-1 (IC50)
# Description: as §4, §5, §3
# Cell line GB-1 (JCRB, No. IFO50489) was cultured in 10% fetal bovine serum-containing DMEM medium (+P/S).
# as §1, §2
row,Structure (SMILES),IC50 [nM]
1,COc1ccc2cc3[n+](cc2c1OC/C=C(\C)CCC=C(C)C)CCc1cc2c(cc1-3)OCO2 [compound AB31737],2660
2,CCCCCCCCNc1c(OC)ccc2cc3[n+](cc12)CCc1cc2c(cc1-3)OCO2 [compound AB31739],3970

# Same assay, conditions: 72 h, 3 days of culture, Table 4, read-out: inhibitory effect on brain cell line GB-1 (IC50)
row,Structure (SMILES),IC50 [nM]
1,COc1ccc2cc3[n+](cc2c1OC/C=C(\C)CCC=C(C)C)CCc1cc2c(cc1-3)OCO2 [compound AB31737],2660
2,CCCCCCCCNc1c(OC)ccc2cc3[n+](cc12)CCc1cc2c(cc1-3)OCO2 [compound AB31739],3970

# System: 786-O (clear cell renal cell adenocarcinoma cell)
# Assay: Cell viability assay (Promega CellTiter-Glo), inhibitory effect on 786-O
# Assay type: cell-based
# Details: Homo sapiens, 786-0, 72 h, 3 days of culture
# Description: as §4, §5, §3
# Cell line 786-0 (ATCC, No. CRL-1932) was cultured in 10% fetal bovine serum-containing RPMI1640 medium (+P/S).
row,Structure (SMILES),IC50 [nM]
1,COc1ccc2cc3[n+](cc2c1OC/C=C(\C)CCC=C(C)C)CCc1cc2c(cc1-3)OCO2 [compound AB31737],2340
2,CCCCCCCCNc1c(OC)ccc2cc3[n+](cc12)CCc1cc2c(cc1-3)OCO2 [compound AB31739],3050

# System: G-401 (human renal carcinoma Wilms cell)
# Assay: Cell viability assay (Promega CellTiter-Glo), inhibitory effect on G-401
# Assay type: cell-based
# Details: 72 h, 3 days of culture
# Description: as §4, §5, §3
# Cell line G-401 (ATCC, No. CRL-1441) was cultured in 10% fetal bovine serum-containing McCoy's 5a medium (+P/S).
row,Structure (SMILES),IC50 [nM]
1,COc1ccc2cc3[n+](cc2c1OC/C=C(\C)CCC=C(C)C)CCc1cc2c(cc1-3)OCO2 [compound AB31737],170
2,CCCCCCCCNc1c(OC)ccc2cc3[n+](cc12)CCc1cc2c(cc1-3)OCO2 [compound AB31739],530

# System: Kelly (brain neuroblastoma cell)
# Assay: Cell viability assay (Promega CellTiter-Glo), inhibitory effect on Kelly
# Assay type: cell-based
# Details: Homo sapiens, 72 h, 3 days of culture, read-out: inhibitory effect on brain cell line Kelly (IC50)
# Description: as §1, §2, §3
# Cell line Kelly (ECACC, No. 92110411) was cultured in 10% fetal bovine serum and 2 mM glutamine-containing RPMI1640 medium.
row,Structure (SMILES),IC50 [nM]
1,COc1ccc2cc3[n+](cc2c1OC/C=C(\C)CCC=C(C)C)CCc1cc2c(cc1-3)OCO2 [compound AB31737],360
2,CCCCCCCCNc1c(OC)ccc2cc3[n+](cc12)CCc1cc2c(cc1-3)OCO2 [compound AB31739],640

# System: ov-NNMT NCI-H82 cell (NNMT protein-overexpressing NCI-H82)
# Assay: Cell viability assay (Promega CellTiter-Glo), inhibitory effect on ov-NNMT NCI-H82 cell
# Assay type: cell-based
# Details: Homo sapiens
# Description: as §6, §7
row,Structure (SMILES),IC50 [nM]
1,COc1ccc2cc3[n+](cc2c1OC/C=C(\C)CCC=C(C)C)CCc1cc2c(cc1-3)OCO2 [compound AB31737],730
2,CCCCCCCCNc1c(OC)ccc2cc3[n+](cc12)CCc1cc2c(cc1-3)OCO2 [compound AB31739],950
